These are literature values, as cited in US6583280B1, “Polyamine analogues having antiproliferative activity” (priority 2000, dated 2003).

Like-named read-outs stand apart in the source and are kept apart here.

In data set [1] the test system is Trypanosoma brucei brucei.
The target in a further data set is T1, AdoMetDC (Homo sapiens, UniProt P17707).
T1 sequence (P17707 68-334 limits assumed): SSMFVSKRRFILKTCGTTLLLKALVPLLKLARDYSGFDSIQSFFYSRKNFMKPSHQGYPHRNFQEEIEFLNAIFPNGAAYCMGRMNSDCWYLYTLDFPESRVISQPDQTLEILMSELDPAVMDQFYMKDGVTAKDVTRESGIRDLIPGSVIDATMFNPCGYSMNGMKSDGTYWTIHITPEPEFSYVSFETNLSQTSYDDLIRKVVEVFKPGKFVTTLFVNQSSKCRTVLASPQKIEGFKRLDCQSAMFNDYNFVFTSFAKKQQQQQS
T1 sequence (P17707 1-67 limits assumed): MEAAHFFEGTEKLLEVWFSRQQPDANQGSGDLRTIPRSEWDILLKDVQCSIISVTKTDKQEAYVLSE
The settings on record: inhibitor of AdoMetDC.

For data set [2] the following is noted: in vitro toxicity.
The next data set concerns the target T2, ODC (Homo sapiens, UniProt P11926).
T2 sequence (P11926 1-461): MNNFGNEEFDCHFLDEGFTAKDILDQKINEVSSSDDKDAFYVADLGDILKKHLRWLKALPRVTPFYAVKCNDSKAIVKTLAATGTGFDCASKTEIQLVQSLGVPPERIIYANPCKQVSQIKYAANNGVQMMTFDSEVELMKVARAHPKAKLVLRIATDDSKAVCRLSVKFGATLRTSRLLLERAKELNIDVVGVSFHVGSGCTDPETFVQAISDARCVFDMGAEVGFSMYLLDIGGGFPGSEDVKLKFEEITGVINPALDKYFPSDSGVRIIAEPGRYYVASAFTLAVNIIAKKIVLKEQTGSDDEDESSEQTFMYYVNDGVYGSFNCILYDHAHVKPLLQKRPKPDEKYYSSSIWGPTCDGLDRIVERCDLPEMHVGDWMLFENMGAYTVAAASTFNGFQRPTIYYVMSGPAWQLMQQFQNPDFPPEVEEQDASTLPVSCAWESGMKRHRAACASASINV

For data set [3] the following is noted: animal study.
The conditions of data set [4]: human, in vivo.
For data set [5] the following is noted: liver and kidney.
Data set [6] has as its system L1210 murine leukemia cells.
In data set [7] the target is polyamine transport system.
The target in data set [8] is T3, SSAT (Homo sapiens, UniProt P21673). The settings on record: multisubstrate inhibitor of SSAT.
Data set [9] addresses T3, SSAT. The following applies: due to lack of uptake.
For another data set, the system named is recombinant NMDA. The settings on record: recombinant NMDA receptors.
In the next data set the target is NMDA receptor. The following applies: for IC50: MK-801 binding.
Data set [10] deals with two human pancreatic ductal adenocarcinoma cell lines.
The subject of data set [11] is SSAT.
The test system of data set [12] is human large cell carcinoma (LCLC). The settings on record: 10 μM.
Data set [13] deals with human small cell lung carcinoma line (SCLC).
For data set [14] the following is noted: physiological pH.
The next data set has as its target T4, spermine synthase (Homo sapiens, UniProt P52788).
T4 sequence (P52788 1-366): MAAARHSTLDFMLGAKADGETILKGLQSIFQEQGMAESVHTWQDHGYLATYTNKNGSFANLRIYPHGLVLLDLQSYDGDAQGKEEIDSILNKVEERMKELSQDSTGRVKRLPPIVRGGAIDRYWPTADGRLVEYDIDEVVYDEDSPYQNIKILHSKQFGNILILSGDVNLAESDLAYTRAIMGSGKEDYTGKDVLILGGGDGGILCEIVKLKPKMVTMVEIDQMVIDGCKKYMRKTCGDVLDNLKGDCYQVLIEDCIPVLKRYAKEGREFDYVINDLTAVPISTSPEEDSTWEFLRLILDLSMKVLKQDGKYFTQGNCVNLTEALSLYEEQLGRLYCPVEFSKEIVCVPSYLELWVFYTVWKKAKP
The settings on record: multisubstrate adduct inhibitor, in vitro.

Setting [15] is: 96th, read-out: 96th IC50 toward L1210 cell growth.
Where [16] appears, read: target not printed, read-out: Ki.
Setting [17] is: L1210 murine leukemia cells, read-out: IC50.
Setting [18] is: read-out: Ki value for the polyamine transport system.

T3 sequence (P21673 whole entry, species assumed): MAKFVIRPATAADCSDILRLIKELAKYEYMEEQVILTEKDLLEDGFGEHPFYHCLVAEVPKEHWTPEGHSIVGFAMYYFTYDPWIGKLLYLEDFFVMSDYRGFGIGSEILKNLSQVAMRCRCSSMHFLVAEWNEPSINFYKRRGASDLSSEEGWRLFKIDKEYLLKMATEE

Turning to `CN(CC=CCN)CC1OC(n2cnc3c(N)ncnc32)C(O)C1O` (stereo not drawn) [AbeAdo, 5′-{[(Z)-4-anino-2-butenyl]methylamino}-5′-deoxyadenosin], the “potency relative to DFMO” value in [1] (Trypanosoma brucei brucei) was “at least 100 times”. For the same compound, in data set [1] (Trypanosoma brucei brucei and multi-drug-resistant Trypanosoma brucei rhodesiense infections in mice), the effect on infection result was “cures”. Further, the Ki at AdoMetDC is 0.3 µM.
With `NCCCCN(CCCN)Cc1ccc(B(O)O)cc1` [BBSPD-5], in data set [2], the IC50 is 5000 µM.
`NCCC[C@](N)(C(=O)O)C(F)F` [DFMO, α-difluoromethylornithine]: on ODC (irreversible inhibitor of ODC), the Ki is 40 µM. Further, in the data set with polyamine pools, the “effect on polyamine pools” value was “depletes putricine and spermidine pools, but has little effect on Spermine pools”.
In the case of `NCCCCNCCCN` [spermidine], the “nephrotoxicity relative to spermine” value in data set [3] is “approximately one-twentieth”.
As for `C#C[C@H](N)CC[C@@H](C)N` [RR-MAP, (2R,5R)-6-heptyne-2,5-diamine], at ODC (putrescine analogue, target not given), the Ki was 3 µM. Besides, the “toxicity in clinical trials” value in data set [4] was “myclosuppression and renal toxicity”.
Take `CCNCC[C@@H](O)CNCCCCNC[C@H](O)CCNCC` [(HO)2DEHPM]: in [5], the “accumulation of drug and metabolites” value is given as “not observed”. Also, the IC50 in [6] (setting [15]) is 0.05 µM. The Ki in data set [7] (setting [16]) was 1.8 µM.
For the compound `CC(C)(COP(=O)(O)OP(=O)(O)OC[C@H]1O[C@@H](n2cnc3c(N)ncnc32)[C@H](O)[C@@H]1OP(=O)(O)O)[C@@H](O)C(=O)NCCC(=O)NCCSCC(=O)NCCCNCCCN` [CNSA, N-[1-(S-coenzyme A)acetyl]-syn-norspermidine amide], the half-maximal inhibitory concentration (IC50) at SSAT [8] was 0.3 µM. Further, the “activity in intact cells” value on SSAT [9] is “devoid of activity in intact cells”.
With `c1ccc(CNCCCCN(CCCNCc2ccccc2)Cc2ccccc2)cc1` [TB-3-4], the IC50 with recombinant NMDA is 0.2 µM.
For `c1cc(NCCCCNc2ccncc2)ccn1` [PYR (3,4,3)], the half-inhibitory concentration (IC50) on NMDA receptor is 8 µM.
`CCNCCCNCCCNCCCNCC` [DENSpm, N′,N″-bis ethylnorspermine]: in data set [10], the antiproliferative activity result is “great antiproliferative activity”. The “effect on polyamine pools” value in the data set with polyamine pools is on record as “deplete all three polyamine pools”. Besides, in data set [6] (setting [17]), the IC50 was 1.3 µM. In addition, the “SSAT up-regulation / stimulation” value with SSAT [11] is given as 15 fold. In [7] (setting [18]), the Ki is 17 µM.
As to `CCNCCCNCCCCNCCCNCC` [DESpm, N′,N″-bis-ethylspermine], the cytotoxicity entry in data set [12] was “cytotoxic”. In addition, in data set [12] (time- and dose-dependent), the “induction of SSAT” value is on record as “above 1700 fold”. Also, the “effect on polyamine pools” value with polyamine pools is “deplete all three polyamine pools”. In addition, in data set [6] (setting [17]), the IC50 is 0.18 µM. The “SSAT up-regulation / stimulation” value in the data set on SSAT [11] was 4.6 fold. Further, in [7] (setting [18]), the Ki was 1.6 µM. Moreover, the “induction of SSAT or cytotoxic effect” value in data set [13] is given as “no significant induction of SSAT or cytotoxic effect”.
As to `C(CNC1CCNCC1)CNC1CCNCC1` [PIP (3,3,3)], the “increase of MK-801 level” value with NMDA receptor (agonist) is on record as 100%. In addition, in [14], the “fraction in the 3+ catonic state” value is reported as 63.2%.
Turning to `CCNCCCCNCCCCNCCCCNCC` [DEHSPM], in data set [5], the “accumulation of drug and metabolites” value was “accumulate to toxic levels in the liver and kidney”. The IC50 in data set [6] (setting [15]) is 0.05 µM. In data set [7] (setting [16]), the Ki was 1.4 µM.
For “S-(-5′-deoxy-5′-adenosyl)-1,12-diamino-3-thio-9-azadodecane [AdoDATAD]”, the IC50 at spermine synthase was 20 µM.
For the compound `NCCCCNCCCCNCCCCN` [homospermine], in the data set with NMDA receptor, the “agonist concentration at NMDA receptor” value is ≥ 10 µM and the IC50 was 80 µM.
